Tests used:
Format in all cases: cell-based
Staph Russell = test: standard MIC test, compound alone and in combination with ampicillin
Proteus C889 = test: as above
[1] = tested on: 7 cephalosporinase - producing E. coli strains; test: standard MIC test, cephaloridine with synergist; conditions: Escherichia coli, read-out: Geometric Mean (MIC)
Description: A composition of sodium 6β-methanesulphonyloxypenicillanate and cephaloridine against 7 cephalosporinase - producing E. coli strains results in the following MIC's in a standard test.

[2] = substance alone (the 1st table)
[3] = substance alone (the 2nd table)

Row | SMILES | MIC (Staph Russell; [2]) | MIC (Staph Russell; [3]) | MIC (Proteus C889; [2]) | MIC (Proteus C889; [3]) | MIC [1]
1 | CC1(C)S[C@@H]2[C@H](NC(=O)[C@H](N)c3ccccc3)C(=O)N2[C@H]1C(=O)O [Ampicillin] | 62.5 mg/L | 250 mg/L | 1000 mg/L | > 2000 mg/L | –
2 | CC1(C)S[C@@H]2[C@H](OS(=O)(=O)c3ccc(Br)cc3)C(=O)N2[C@H]1C(=O)O [Calcium 6β-p-bromobenzenzsulphonyloxypenicillanate] | – | 16 mg/L | – | > 500 mg/L | –
3 | O=C(Cc1cccs1)N[C@@H]1C(=O)N2C(C(=O)[O-])=C(C[n+]3ccccc3)CS[C@H]12 [Cephaloridine] | – | – | – | – | 152 mg/L
4 | CC1(C)S[C@@H]2[C@H](OS(C)(=O)=O)C(=O)N2[C@H]1C(=O)O [Sodium 6β-methanesulphonyloxypenicillanate] | 4 mg/L | – | 62.5 mg/L | – | –
